The results in this text go back to patent US20240115549A1, “TREATMENT OF MENTAL DISORDERS” (GH Research Ireland Limited, priority 2022, published 2024).

The subject of the data set is Escherichia coli WP2 uvrA pKM101. Description: Bacterial mutation test, Escherichia coli. It is filed as cell-based. To be noted: up to 5000 pg/plate, with and without S-9. An excerpt:
These conditions included treatments at concentrations up to […] (the maximum recommended concentration according to current regulatory guidelines), in the absence and in the presence of a rat liver metabolic activation system (S-9).

For the molecule `COc1ccc2[nH]cc(CCN(C)C)c2c1` [5-MeO-DMT], the Induction of mutation result is reported as “did not induce mutation”.
